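96-well plates; 48 h exposure; 5 concentrations. Endpoints by linear interpolation between flanking doses. Not reached: highest tested concentration assigned. GI50: concentration for 50% inhibition of growth.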 The source made the active and inactive calls. Rule as the data show it: active = GI50 up to about 1.1 µM and inactive = higher.
Tests used:
Assay in all cases: NCI-60 cell line screen, 48 h
SR = tested on: SR
SF-295 = tested on: SF-295
SNB-19 = tested on: SNB-19
SF-268 = tested on: SF-268
OVCAR-8 = tested on: OVCAR-8
M14 = tested on: M14
SNB-75 = tested on: SNB-75
HOP-92 = tested on: HOP-92
PC-3 = tested on: PC-3
SK-MEL-28 = tested on: SK-MEL-28
SK-MEL-2 = tested on: SK-MEL-2
OVCAR-5 = tested on: OVCAR-5
RXF 393 = tested on: RXF 393
IGROV-1 = tested on: IGROV-1
TK-10 = tested on: TK-10
LOX IMVI = tested on: LOX IMVI
UACC-257 = tested on: UACC-257
HCC 2998 = tested on: HCC 2998
NCI-H226 = tested on: NCI-H226

Measured: GI50

O=C(O)c1cc(Cl)cc(Cc2cc(Cl)cc(C(=O)O)c2O)c1O
inactive: SR > 100 µM | SF-295 > 100 µM | SNB-19 > 100 µM | SF-268 > 100 µM | OVCAR-8 > 100 µM | M14 > 100 µM | SNB-75 > 100 µM | HOP-92 > 100 µM | PC-3 > 100 µM | SK-MEL-28 > 100 µM | SK-MEL-2 > 100 µM | OVCAR-5 > 100 µM | RXF 393 > 100 µM | IGROV-1 > 100 µM | TK-10 > 100 µM | LOX IMVI > 100 µM

C=C(C)[C@@H]1C[C@H]2O[C@](O)(C(=C)CC(=O)/C=C(/C)C[C@@H]3OC(=O)[C@]24O[C@@H]34)[C@H]1O
inactive: SR > 100 µM | UACC-257 > 100 µM | SF-295 > 100 µM | SNB-19 > 100 µM | SF-268 > 100 µM | OVCAR-8 > 100 µM | HCC 2998 > 100 µM | M14 > 100 µM | SNB-75 > 100 µM | PC-3 > 100 µM | SK-MEL-28 > 100 µM | NCI-H226 > 100 µM | SK-MEL-2 > 100 µM | OVCAR-5 > 100 µM | RXF 393 > 100 µM | IGROV-1 > 100 µM | TK-10 > 100 µM | LOX IMVI > 100 µM

CCOC(=O)/C(C#N)=N\Nc1ccc(-n2c(C)nc3ccc(Br)cc3c2=O)cc1
inactive: SR 19.7 µM | UACC-257 > 100 µM | SF-295 64.7 µM | SNB-19 76.6 µM | SF-268 68.5 µM | OVCAR-8 68.1 µM | M14 69.5 µM | SNB-75 55.1 µM | HOP-92 > 100 µM | PC-3 63.8 µM | SK-MEL-28 98.2 µM | NCI-H226 79.8 µM | SK-MEL-2 > 100 µM | OVCAR-5 > 100 µM | IGROV-1 41.9 µM | TK-10 > 100 µM | LOX IMVI 36.1 µM

FC1C2=C(SC1(F)F)C1CCC2C1 (stereo not given)
inactive: SR > 100 µM | UACC-257 > 100 µM | SF-295 > 100 µM | SNB-19 > 100 µM | OVCAR-8 > 100 µM | M14 > 100 µM | SNB-75 > 100 µM | HOP-92 > 100 µM | PC-3 > 100 µM | NCI-H226 > 100 µM | SK-MEL-2 > 100 µM | OVCAR-5 > 100 µM | RXF 393 > 100 µM | IGROV-1 > 100 µM | TK-10 > 100 µM | LOX IMVI > 100 µM

O=C1OC(C2Cc3cc4c(cc3C2=O)CCC4)c2ccccc21 (stereo not given)
inactive: SR 35.7 µM | UACC-257 > 100 µM | SF-295 74.5 µM | SNB-19 32.1 µM | SF-268 45.7 µM | OVCAR-8 67.1 µM | HCC 2998 21.2 µM | M14 > 100 µM | SNB-75 51.4 µM | PC-3 30.3 µM | SK-MEL-28 38.5 µM | NCI-H226 20.6 µM | SK-MEL-2 65 µM | OVCAR-5 > 100 µM | IGROV-1 45.5 µM | TK-10 > 100 µM | LOX IMVI 37 µM

COc1ccc(/C=N/NC(=S)Nc2cc(C)ccc2OC)cc1
inactive: SR 9.08 µM | SF-295 37.4 µM | SNB-19 46.1 µM | SF-268 48.9 µM | OVCAR-8 37.6 µM | M14 23.1 µM | SNB-75 > 100 µM | HOP-92 25.2 µM | PC-3 34.4 µM | SK-MEL-28 34.8 µM | SK-MEL-2 19.8 µM | OVCAR-5 16.9 µM | RXF 393 33.7 µM | IGROV-1 33.5 µM | LOX IMVI 43.8 µM

Clc1ccc(C2ON=C(c3ccccc3)N2C23CC4CC(CC(C4)C2)C3)c(Cl)c1 (stereo not given)
inactive: UACC-257 > 10 µM | SF-295 > 10 µM | SNB-19 > 10 µM | SF-268 > 10 µM | OVCAR-8 > 10 µM | HCC 2998 > 10 µM | M14 > 10 µM | SNB-75 > 10 µM | HOP-92 > 10 µM | PC-3 > 10 µM | SK-MEL-28 > 10 µM | NCI-H226 > 10 µM | SK-MEL-2 > 10 µM | OVCAR-5 > 10 µM | RXF 393 > 10 µM | IGROV-1 > 10 µM | TK-10 > 10 µM | LOX IMVI > 10 µM

CC1(C)OC[C@@H]([C@H](C=O)OCc2ccccc2)O1
inactive: SR > 100 µM | UACC-257 > 100 µM | SF-295 > 100 µM | SNB-19 > 100 µM | SF-268 > 100 µM | OVCAR-8 > 100 µM | M14 > 100 µM | SNB-75 > 100 µM | HOP-92 > 100 µM | PC-3 > 100 µM | SK-MEL-28 > 100 µM | NCI-H226 > 100 µM | SK-MEL-2 > 100 µM | OVCAR-5 > 100 µM | IGROV-1 > 100 µM | TK-10 > 100 µM | LOX IMVI > 100 µM

CN(CC#N)C(=O)Cc1ccc([N+](=O)[O-])cc1
inactive: SR > 10 µM | UACC-257 > 10 µM | SF-295 > 10 µM | SNB-19 > 10 µM | SF-268 > 10 µM | OVCAR-8 > 10 µM | HCC 2998 > 10 µM | M14 > 10 µM | PC-3 > 10 µM | SK-MEL-28 > 10 µM | NCI-H226 > 10 µM | SK-MEL-2 > 10 µM | OVCAR-5 > 10 µM | RXF 393 > 10 µM | IGROV-1 > 10 µM | TK-10 > 10 µM | LOX IMVI > 10 µM

Cc1cc2c(c(C(=O)NCCC(=O)N[C@@H](C)C(=O)OCc3ccccc3)c1)Oc1c(cc(C)cc1C(=O)NCCC(=O)N[C@@H](C)C(=O)OCc1ccccc1)S2
inactive: SR 43.3 µM | UACC-257 > 100 µM | SF-295 > 100 µM | SNB-19 > 100 µM | SF-268 > 100 µM | OVCAR-8 > 100 µM | HCC 2998 > 100 µM | M14 > 100 µM | SNB-75 > 100 µM | PC-3 > 100 µM | NCI-H226 > 100 µM | SK-MEL-2 > 100 µM | OVCAR-5 > 100 µM | RXF 393 38.5 µM | IGROV-1 > 100 µM

c1ccc2c(CC3NCCN3)cccc2c1
inactive: SR > 100 µM | UACC-257 > 100 µM | SF-295 > 100 µM | SNB-19 > 100 µM | SF-268 > 100 µM | OVCAR-8 > 100 µM | M14 > 100 µM | SNB-75 > 100 µM | HOP-92 46 µM | PC-3 > 100 µM | SK-MEL-28 > 100 µM | NCI-H226 > 100 µM | SK-MEL-2 > 100 µM | OVCAR-5 > 100 µM | RXF 393 > 100 µM | IGROV-1 > 100 µM | TK-10 > 100 µM | LOX IMVI > 100 µM

COc1cc2nn(-c3ccccc3)nc2c2nonc12
inactive: SR > 100 µM | UACC-257 > 100 µM | SF-295 > 100 µM | SNB-19 > 100 µM | SF-268 > 100 µM | HCC 2998 > 100 µM | M14 > 100 µM | SNB-75 > 100 µM | PC-3 > 100 µM | SK-MEL-28 > 100 µM | NCI-H226 > 100 µM | SK-MEL-2 > 100 µM | OVCAR-5 > 100 µM | RXF 393 > 100 µM | IGROV-1 > 100 µM | TK-10 > 100 µM | LOX IMVI 38.8 µM

Nc1ncnc2c1ncn2C1OC(COP(=O)(O)CP(=O)(O)O)C(O)C1O (stereo not given)
inactive: SR > 100 µM | UACC-257 > 100 µM | SF-295 > 100 µM | SNB-19 > 100 µM | SF-268 > 100 µM | OVCAR-8 > 100 µM | HCC 2998 > 100 µM | M14 > 100 µM | SNB-75 > 100 µM | PC-3 > 100 µM | SK-MEL-28 > 100 µM | NCI-H226 > 100 µM | SK-MEL-2 > 100 µM | OVCAR-5 > 100 µM | RXF 393 > 100 µM | IGROV-1 > 100 µM | TK-10 > 100 µM | LOX IMVI > 100 µM

O=C1/C(=C/C=C/c2ccccc2)N=C(c2ccccc2)N1c1ccc(S(=O)(=O)Nc2nccs2)cc1
inactive: SR 30.9 µM | UACC-257 34.6 µM | SF-295 33.5 µM | SNB-19 37.2 µM | SF-268 14 µM | OVCAR-8 29.3 µM | M14 26.4 µM | SNB-75 45.1 µM | HOP-92 45.9 µM | PC-3 36.4 µM | NCI-H226 20 µM | SK-MEL-2 25.1 µM | OVCAR-5 31.6 µM | RXF 393 13.2 µM | IGROV-1 20.2 µM | TK-10 30.8 µM | LOX IMVI 21.8 µM

NN/C(=N\S(=O)(=O)c1cc(Cl)c(Oc2ccc([N+](=O)[O-])cc2Cl)c(Cl)c1)Nc1ccc(Cl)cc1
inactive: SR 16.6 µM | UACC-257 17.6 µM | SF-295 20.4 µM | SNB-19 23.8 µM | SF-268 19.5 µM | OVCAR-8 24.2 µM | M14 17.4 µM | SNB-75 23.7 µM | HOP-92 19.9 µM | PC-3 26.5 µM | SK-MEL-28 21.5 µM | NCI-H226 15.9 µM | SK-MEL-2 18 µM | OVCAR-5 24.4 µM | RXF 393 13.2 µM | IGROV-1 20.2 µM | TK-10 19.3 µM | LOX IMVI 21 µM

C[N+](C)(CCCn1ccnc1[N+](=O)[O-])CCCn1ccnc1[N+](=O)[O-]
inactive: SR > 100 µM | UACC-257 > 100 µM | SF-295 > 100 µM | SF-268 > 100 µM | OVCAR-8 > 100 µM | M14 > 100 µM | SNB-75 > 100 µM | PC-3 > 100 µM | SK-MEL-28 > 100 µM | NCI-H226 > 100 µM | SK-MEL-2 > 100 µM | OVCAR-5 > 100 µM | RXF 393 > 100 µM | IGROV-1 > 100 µM | TK-10 > 100 µM | LOX IMVI > 100 µM

Reference: ChEMBL document CHEMBL1201862, “PubChem BioAssay data set” (2004)
